Read-outs that look alike come from different tables or passages of the source.
Test system: G3BP1 NFT2
Assay type: binding, human
Details: library DMS-CoV, bait G3BP1 NFT2, prey N, listed as aa = residue placed at this position, column sums to 1

APRITFGGPSDSTGSN G8R (APRITFGRPSDSTGSN) was tested, and the “DMS PSSM value, G (position 8)” value (peptide APRITFGGPSDSTGSN) was 0.

For RNAPRITFGGPSDSTG F8Q (RNAPRITQGGPSDSTG), the “DMS PSSM value, F (position 8)” value (peptide RNAPRITFGGPSDSTG) was 0.

RNAPRITFGGPSDSTG A3I (RNIPRITFGGPSDSTG) was tested, and the “DMS PSSM value, A (position 3)” value (peptide RNAPRITFGGPSDSTG) was 0.

With APRITFGGPSDSTGSN A1G (GPRITFGGPSDSTGSN) the “DMS PSSM value, A (position 1)” value (peptide APRITFGGPSDSTGSN) was 0.004858.

In the case of “RNAPRITFGGPSDSTG G10K (RNAPRITFGKPSDSTG)”, the “DMS PSSM value, G (position 10)” value (peptide RNAPRITFGGPSDSTG) is reported as 0.

APRITFGGPSDSTGSN was tested, and the “DMS PSSM value, A (position 1)” value (peptide APRITFGGPSDSTGSN) was 0.1536, the “DMS PSSM value, D (position 11)” value (peptide APRITFGGPSDSTGSN) was 0.2538 and the “DMS PSSM value, F (position 6)” value (peptide APRITFGGPSDSTGSN) was 0.991. The “DMS PSSM value, G (position 7)” value (peptide APRITFGGPSDSTGSN) was 0.9101, the “DMS PSSM value, G (position 8)” value (peptide APRITFGGPSDSTGSN) was 0.05897 and the “DMS PSSM value, G (position 14)” value (peptide APRITFGGPSDSTGSN) was 0.009135. The “DMS PSSM value, I (position 4)” value (peptide APRITFGGPSDSTGSN) was 0.9676, the “DMS PSSM value, P (position 2)” value (peptide APRITFGGPSDSTGSN) was 0.199 and the “DMS PSSM value, P (position 9)” value (peptide APRITFGGPSDSTGSN) was 0.679. For the same sequence, the “DMS PSSM value, R (position 3)” value (peptide APRITFGGPSDSTGSN) was 0.004269, the “DMS PSSM value, S (position 10)” value (peptide APRITFGGPSDSTGSN) was 0.07098 and the “DMS PSSM value, S (position 12)” value (peptide APRITFGGPSDSTGSN) was 0.1222. The “DMS PSSM value, S (position 15)” value (peptide APRITFGGPSDSTGSN) was 0.03905, the “DMS PSSM value, T (position 5)” value (peptide APRITFGGPSDSTGSN) was 0.4961 and the “DMS PSSM value, T (position 13)” value (peptide APRITFGGPSDSTGSN) was 0.03355.

For “APRITFGGPSDSTGSN S12P (APRITFGGPSDPTGSN)”, the “DMS PSSM value, S (position 12)” value (peptide APRITFGGPSDSTGSN) was 0.

For “RNAPRITFGGPSDSTG S12N (RNAPRITFGGPNDSTG)”, the “DMS PSSM value, S (position 12)” value (peptide RNAPRITFGGPSDSTG) was 0.

In the case of RNAPRITFGGPSDSTG P4R (RNARRITFGGPSDSTG), the “DMS PSSM value, P (position 4)” value (peptide RNAPRITFGGPSDSTG) is reported as 0.

RNAPRITFGGPSDSTG R5V (RNAPVITFGGPSDSTG) was tested, and the “DMS PSSM value, R (position 5)” value (peptide RNAPRITFGGPSDSTG) was 0.006458.

For “APRITFGGPSDSTGSN S15T (APRITFGGPSDSTGTN)”, the “DMS PSSM value, S (position 15)” value (peptide APRITFGGPSDSTGSN) was 0.008335.

For APRITFGGPSDSTGSN T5A (APRIAFGGPSDSTGSN), the “DMS PSSM value, T (position 5)” value (peptide APRITFGGPSDSTGSN) was 0.

In the case of “RNAPRITFGGPSDSTG S12I (RNAPRITFGGPIDSTG)”, the “DMS PSSM value, S (position 12)” value (peptide RNAPRITFGGPSDSTG) is reported as 0.

“APRITFGGPSDSTGSN T13W (APRITFGGPSDSWGSN)” was tested, and the “DMS PSSM value, T (position 13)” value (peptide APRITFGGPSDSTGSN) was 0.

“APRITFGGPSDSTGSN S15W (APRITFGGPSDSTGWN)” was tested, and the “DMS PSSM value, S (position 15)” value (peptide APRITFGGPSDSTGSN) was 0.00112.

With APRITFGGPSDSTGSN A1M (MPRITFGGPSDSTGSN) the “DMS PSSM value, A (position 1)” value (peptide APRITFGGPSDSTGSN) was 0.03133.

“APRITFGGPSDSTGSN T13F (APRITFGGPSDSFGSN)” was tested, and the “DMS PSSM value, T (position 13)” value (peptide APRITFGGPSDSTGSN) was 0.002251.

RNAPRITFGGPSDSTG I6V (RNAPRVTFGGPSDSTG) was tested, and the “DMS PSSM value, I (position 6)” value (peptide RNAPRITFGGPSDSTG) was 0.768.

With APRITFGGPSDSTGSN P2V (AVRITFGGPSDSTGSN) the “DMS PSSM value, P (position 2)” value (peptide APRITFGGPSDSTGSN) was 0.

For “RNAPRITFGGPSDSTG D13H (RNAPRITFGGPSHSTG)”, the “DMS PSSM value, D (position 13)” value (peptide RNAPRITFGGPSDSTG) was 0.

With RNAPRITFGGPSDSTG P4Y (RNAYRITFGGPSDSTG) the “DMS PSSM value, P (position 4)” value (peptide RNAPRITFGGPSDSTG) was 0.

In the case of RNAPRITFGGPSDSTG A3S (RNSPRITFGGPSDSTG), the “DMS PSSM value, A (position 3)” value (peptide RNAPRITFGGPSDSTG) is reported as 0.

For “RNAPRITFGGPSDSTG G10D (RNAPRITFGDPSDSTG)”, the “DMS PSSM value, G (position 10)” value (peptide RNAPRITFGGPSDSTG) was 0.

“APRITFGGPSDSTGSN S15D (APRITFGGPSDSTGDN)” was tested, and the “DMS PSSM value, S (position 15)” value (peptide APRITFGGPSDSTGSN) was 0.002282.

In the case of RNAPRITFGGPSDSTG A3M (RNMPRITFGGPSDSTG), the “DMS PSSM value, A (position 3)” value (peptide RNAPRITFGGPSDSTG) is reported as 0.

In the case of APRITFGGPSDSTGSN R3A (APAITFGGPSDSTGSN), the “DMS PSSM value, R (position 3)” value (peptide APRITFGGPSDSTGSN) is reported as 0.0016.

For “RNAPRITFGGPSDSTG P11D (RNAPRITFGGDSDSTG)”, the “DMS PSSM value, P (position 11)” value (peptide RNAPRITFGGPSDSTG) was 0.

With RNAPRITFGGPSDSTG N2H (RHAPRITFGGPSDSTG) the “DMS PSSM value, N (position 2)” value (peptide RNAPRITFGGPSDSTG) was 0.

RNAPRITFGGPSDSTG N2K (RKAPRITFGGPSDSTG) was tested, and the “DMS PSSM value, N (position 2)” value (peptide RNAPRITFGGPSDSTG) was 0.

In the case of APRITFGGPSDSTGSN P9D (APRITFGGDSDSTGSN), the “DMS PSSM value, P (position 9)” value (peptide APRITFGGPSDSTGSN) is reported as 0.

For “APRITFGGPSDSTGSN S12R (APRITFGGPSDRTGSN)”, the “DMS PSSM value, S (position 12)” value (peptide APRITFGGPSDSTGSN) was 0.

In the case of “RNAPRITFGGPSDSTG S14M (RNAPRITFGGPSDMTG)”, the “DMS PSSM value, S (position 14)” value (peptide RNAPRITFGGPSDSTG) is reported as 0.3095.

With APRITFGGPSDSTGSN F6D (APRITDGGPSDSTGSN) the “DMS PSSM value, F (position 6)” value (peptide APRITFGGPSDSTGSN) was 0.

APRITFGGPSDSTGSN G7K (APRITFKGPSDSTGSN) was tested, and the “DMS PSSM value, G (position 7)” value (peptide APRITFGGPSDSTGSN) was 0.
